Measurements taken from patent US9505709B2, “Compositions and methods relating to ionic salts of peptides” (Thetis Pharmaceuticals LLC, priority 2014, dated 2016).

Legend:
[1] = Oral pharmacokinetics (oral gavage), plasma free EPA or free DHA; format: in vivo, Sprague-Dawley rats; conditions: rat
Method: Experiments via Oral Gavage: Oral pharmacokinetic parameters of TP-212 (Lysyl-Lysine Bis-EPA), TP-312 (Lysyl-Lysine Bis-DHA), EPA-EE, EPA FFA and DHA FFA were determined in Sprague-Dawley rats. EPA-EE is 97% pure ethyl ester form of eicosapentaenoic acid. It is the principal polyunsaturated fatty acid in Vascepa, an Omega-3 compound approved in the U.S. for the treatment of severe hypertriglyceridemia. EPA FFA is 97% pure free fatty acid form of eicosapentaenoic acid and DHA FFA is 98% pure free fatty acid DHA. EPA FFA and DHA FFA are the two principal poly-unsaturated fatty acids in Epanova, an Omega-3 compound approved in the U.S. for the treatment of severe hypertriglyceridemia. The subject drugs were administered by oral gavage as an aqueous solution in de-ionized water to 6 Sprague-Dawley rats per group (3 males and 3 females). Rats were dosed at 40 mg/kg. Blood samples were obtained from each rat by jugular vein catheter. Samples were collected at pre-dose and at 0.25, 0.5, 1, 2, 4, 8, 12 and 18 hours post dose. Blood samples were centrifuged to separate red blood cells and the resulting plasma samples were analyzed for free EPA or free DHA. Free EPA or […] extracted from rat plasma with hexane at acidic condition without hydrolysis. Detection was by MS-MS monitoring of negative ion for EPA or DHA. Calculated pharmacokinetic values are mean values from 6 rats for each study drug.
(§1) For all figures and tables, the data are adjusted as follows for comparative purposes. First, the actual plasma levels are baseline adjusted. Thus, for each study arm, the pre-dose level (time=0) is subtracted from the actual plasma levels at each time point, with negative values adjusted to zero. Second, these baseline adjusted values are further adjusted to be molar dose equivalent on a comparative basis among the study arms with respect to EPA or DHA payload (i.e., as if equal amounts of free fatty acid EPA or DHA are administered in each study arm).

[2] = Intravenous injection pharmacokinetics, plasma free EPA or free DHA; format: in vivo, Sprague-Dawley rats; conditions: rat
Method: Experiments via Intravenous Injection: TP-212 and TP-312 were administered by intravenous injection (20 mg/kg) to Sprague-Dawley rats (n=6/group—3 male and 3 female), and plasma was obtained from serial blood samples taken from each animal at scheduled times ([…]). Blood samples were centrifuged to separate red blood cells and the resulting plasma samples were analyzed for free EPA or free DHA. Free EPA or free DHA was extracted from rat plasma with hexane at acidic condition without hydrolysis. Detection was by MS-MS monitoring of negative ion for EPA or DHA. Calculated pharmacokinetic values are mean values from 6 rats for each study drug.
as §1

Balb/C mice = test: Ocular irritation after topical dosing to the cornea (hyperemia, squinting, discharge, lid swelling); format: in vivo; conditions: for Hyperemia: 3 μL drop in each eye four times daily for 3 days
[3] = Stability analysis by 1H NMR of samples exposed to air and light; conditions: ambient temperature
Method: Stability analysis was performed using 1H NMR (400 MHz) with acetic acid-d4 at various time point (typically days 1, 14, 30 and 60) using samples exposed to air and light at ambient temperature (clear vials with no caps).

[4] = oral gavage 40 mg/kg, molar dose equivalent, baseline adjusted
[5] = intravenous injection 20 mg/kg, molar dose equivalent, baseline adjusted

## CC/C=C\C/C=C\C/C=C\C/C=C\C/C=C\C/C=C\CCC(=O)O.CC/C=C\C/C=C\C/C=C\C/C=C\C/C=C\C/C=C\CCC(=O)O.NCCCC[C@H](NC(=O)[C@@H](N)CCCCN)C(=O)O [Compound 4, (L,L) Lysyl-lysine bis DHA]
[1]; oral gavage 40 mg/kg
  Tmax (free DHA): 2 h
[1]; oral gavage 40 mg/kg, 0 h (pre-dose), molar dose equivalent, baseline adjusted
  Plasma level of free DHA: 0 ng/mL
[1]; oral gavage 40 mg/kg, 0.25 h (15 min), molar dose equivalent, baseline adjusted
  Plasma level of free DHA: 0 ng/mL
[1]; oral gavage 40 mg/kg, 0.5 h (30 min), molar dose equivalent, baseline adjusted
  Plasma level of free DHA: 4600 ng/mL
[1]; oral gavage 40 mg/kg, 1 h (60 min), molar dose equivalent, baseline adjusted
  Plasma level of free DHA: 6300 ng/mL
[1]; oral gavage 40 mg/kg, 2 h (120 min), molar dose equivalent, baseline adjusted
  Plasma level of free DHA: 10400 ng/mL
[1]; oral gavage 40 mg/kg, 4 h (240 min), molar dose equivalent, baseline adjusted
  Plasma level of free DHA: 5600 ng/mL
[1]; oral gavage 40 mg/kg, 8 h, molar dose equivalent, baseline adjusted
  Plasma level of free DHA: 1400 ng/mL
[1]; oral gavage 40 mg/kg, 12 h, molar dose equivalent, baseline adjusted
  Plasma level of free DHA: 0 ng/mL
[1]; oral gavage 40 mg/kg, 18 h, molar dose equivalent, baseline adjusted
  Plasma level of free DHA: 0 ng/mL
[1]; [4]
  AUC 0-1 hrs (free DHA): 3300 ng·h/mL
  AUC 0-4 hrs (free DHA): 27600 ng·h/mL
  AUC 0-18 hrs (free DHA): 44400 ng·h/mL
  Cmax (free DHA): 10400 ng/mL
[1]; oral gavage
  AUC over 18 hours (free DHA), times greater than DHA-FFA: approximately 1.2 times
  Cmax (free DHA), times greater than DHA-FFA: approximately 3.0 times
[2]; intravenous injection 20 mg/kg
  Tmax (free DHA): 1 min
[2]; intravenous injection 20 mg/kg, 1 min, molar dose equivalent, baseline adjusted
  Plasma level of free DHA: 66400 ng/mL
[2]; intravenous injection 20 mg/kg, 5 min, molar dose equivalent, baseline adjusted
  Plasma level of free DHA: 15100 ng/mL
[2]; intravenous injection 20 mg/kg, 10 min, molar dose equivalent, baseline adjusted
  Plasma level of free DHA: 16600 ng/mL
[2]; intravenous injection 20 mg/kg, 15 min, molar dose equivalent, baseline adjusted
  Plasma level of free DHA: 17500 ng/mL
[2]; intravenous injection 20 mg/kg, 30 min, molar dose equivalent, baseline adjusted
  Plasma level of free DHA: 16400 ng/mL
[2]; intravenous injection 20 mg/kg, 60 min, molar dose equivalent, baseline adjusted
  Plasma level of free DHA: 12900 ng/mL
[2]; intravenous injection 20 mg/kg, 120 min, molar dose equivalent, baseline adjusted
  Plasma level of free DHA: 8500 ng/mL
[2]; intravenous injection 20 mg/kg, 240 min, molar dose equivalent, baseline adjusted
  Plasma level of free DHA: 7800 ng/mL
[2]; intravenous injection 20 mg/kg, first line (time printed as dash, pre-dose), molar dose equivalent, baseline adjusted
  Plasma level of free DHA: 0 ng/mL
[2]; [5]
  AUC 0-1 hrs (free DHA): 16300 ng·h/mL
  AUC 0-4 hrs (free DHA): 43300 ng·h/mL
  Cmax (free DHA): 66400 ng/mL
[2]; intravenous vs oral gavage
  AUC over 1 hour (free DHA), times greater than DHApo: ~14.7 times
  AUC over 1 hour (free DHA), times greater than TP-312po: approximately 4.9 times
  AUC over 4 hours (free DHA), times greater than DHApo: ~5.0 times
  AUC over 4 hours (free DHA), times greater than TP-312po: approximately 1.6 times
  Cmax (free DHA), times greater than DHApo: ~19.3 times
  Cmax (free DHA), times greater than TP-312po: approximately 6.4 times
Balb/C mice; 0.1% concentration in PBS
  Hyperemia: did not cause any significant increase in hyperemia after the first dose
Balb/C mice; 0.5% concentration in PBS
  Hyperemia: some initial hyperemia after the first dose
Balb/C mice; 1.0% concentration in PBS
  Hyperemia: some initial hyperemia after the first dose
Balb/C mice; all concentrations tested, topical to cornea
  Squinting: none of the concentrations caused squinting throughout the study
Balb/C mice; concentrations that showed an initial increase or all tested, last dose / final evaluation (Day 3)
  Hyperemia at last dose / final evaluation: remained at baseline levels of hyperemia by the last dose of the day
Balb/C mice; topical to cornea four times daily for 3 days
  Concentration at which not irritating / well tolerated: less than 1.0%
[3]; Day 3
  Stability by NMR (amount of sample remaining relative to original sample): 1 (1 = >95%)
[3]; Day 14
  Stability by NMR (amount of sample remaining relative to original sample): 1 (1 = >95%)
[3]; Day 30
  Stability by NMR (amount of sample remaining relative to original sample): 1 (1 = >95%)
[3]; Day 60
  Stability by NMR (amount of sample remaining relative to original sample): 1 (1 = >95%)
